# Reference: the supplement of paper PMC6045584
# ± gives the standard deviation of the averaged measurements.
# Experiments:
# [1] = compound: CC(=O)NCC(=O)N1[C@@H]2CC[C@H]1c1ccc(Nc3ncc(C(F)(F)F)c(NC4CCC4)n3)cc12; test: surviving fraction relative to DMSO-only wells; higher = less growth inhibition; settings: exposure time: 5 days
# Summary of the method: (§1)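 Viability values are CellTiter-Glo luminescence readings, given as surviving fraction against the median of DMSO-only wells. The readings were taken after 10 minutes at room temperature, following five days of continuous exposure to inhibitors at 0.5, 1, 5, 10, 50, 100, 500 and 1000 nM that began 24 hours after log-phase tumour cell lines were seeded at 250–500 cells per well in 384-well plates. Every line was screened three times and kept only if replicate Pearson r >0.7 and median Z' >0.3.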
# [2] = compound: T1, Cc1ccc(-c2cc(C(F)(F)F)nn2-c2ccc(S(N)(=O)=O)cc2)cc1 [CELECOXIB]; test: as above; settings: exposure time: 5 days
# Summary of the method: as §1
# [3] = compound: T2, COc1cc2ncnc(Nc3ccc(F)c(Cl)c3)c2cc1OCCCN1CCOCC1 [GEFITINIB]; test: as above; settings: exposure time: 5 days
# Summary of the method: as §1
# [4] = compound: T3, COCC[n+]1c2c(n(Cc3cnccn3)c1C)C(=O)c1ccccc1C2=O [YM155]; test: as above; settings: exposure time: 5 days
# Summary of the method: as §1
# [5] = compound: T4, CC[C@@]1(O)C(=O)OCc2c1cc1n(c2=O)Cc2cc3ccccc3nc2-1 [CAMPTOTHECIN]; test: as above; settings: exposure time: 5 days
# Summary of the method: as §1
# [6] = compound: T5, C[C@]1(O)C[C@@H](c2nc(-c3ccc4ccc(-c5ccccc5)nc4c3)c3c(N)nccn32)C1 [OSI-906]; test: as above; settings: exposure time: 5 days
# Summary of the method: as §1
# [7] = compound: CC(=O)c1c(C)c2cnc(Nc3ccc(N4CCNCC4)cn3)nc2n(C2CCCC2)c1=O; test: as above; settings: exposure time: 5 days
# Summary of the method: as §1
# [8] = compound: T6, O=C(O)C1(C(=O)O)CCC1.[NH2-].[NH2-].[Pt+2] [CARBOPLATIN]; test: as above; settings: exposure time: 5 days
# Summary of the method: as §1
# [9] = compound: T7, CC(=O)O[C@H]1C(=O)[C@@]2(C)[C@H]([C@H](OC(=O)c3ccccc3)[C@]3(O)C[C@H](OC(=O)[C@H](O)[C@@H](NC(=O)c4ccccc4)c4ccccc4)C(C)=C1C3(C)C)[C@]1(OC(C)=O)CO[C@@H]1C[C@@H]2O [PACLITAXEL]; test: as above; settings: exposure time: 5 days
# Summary of the method: as §1
# [10] = compound: CC(=O)NCC(=O)N1[C@@H]2CC[C@H]1c1ccc(Nc3ncc(C(F)(F)F)c(NC4CCC4)n3)cc12; test: area under dose-response curve of surviving fraction (unscaled, Aref=0) (surviving fraction x log10(nM)); higher = more resistant; settings: exposure time: 5 days; dose range 0.5-1000 nM
# Summary of the method: (§2)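 Inhibitor was applied to tumour cell lines at eight concentrations (0.5 to 1000 nM) for five days in 384-well plates. Luminescence from CellTiter-Glo, scaled to DMSO-only wells, gave surviving fractions in three screens per line, and these were fitted by 3-parameter logistic regression with the drc R package. The area under the curve is an unscaled activity area. Aref was 0, and dose was on a log10 scale.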
# [11] = compound: T1, CELECOXIB; test: as above; settings: exposure time: 5 days; dose range 0.5-1000 nM
# Summary of the method: as §2
# [12] = compound: T2, GEFITINIB; test: as above; settings: exposure time: 5 days; dose range 0.5-1000 nM
# Summary of the method: as §2
# [13] = compound: T3, YM155; test: as above; settings: exposure time: 5 days; dose range 0.5-1000 nM
# Summary of the method: as §2
# [14] = compound: T4, CAMPTOTHECIN; test: as above; settings: exposure time: 5 days; dose range 0.5-1000 nM
# Summary of the method: as §2
# [15] = compound: T5, OSI-906; test: as above; settings: exposure time: 5 days; dose range 0.5-1000 nM
# Summary of the method: as §2
# [16] = compound: T7, PACLITAXEL; test: as above; settings: exposure time: 5 days; dose range 0.5-1000 nM
# Summary of the method: as §2
# [17] = compound: T6, CARBOPLATIN; test: as above; settings: exposure time: 5 days; dose range 0.5-1000 nM
# Summary of the method: as §2
test system,measurement,setting,value
SCC47 HEADNECK,surviving fraction,[1]; 0.5 nM,0.82 ± 0.0084
same,surviving fraction,[1]; 1 nM,0.815 ± 0.033
same,surviving fraction,[1]; 5 nM,1.01 ± 0.099
same,surviving fraction,[1]; 10 nM,0.974 ± 0.1
same,surviving fraction,[1]; 50 nM,1.01 ± 0.086
same,surviving fraction,[1]; 100 nM,0.904 ± 0.058
same,surviving fraction,[1]; 500 nM,0.542 ± 0.02
same,surviving fraction,[1]; 1000 nM,0.521 ± 0.047
same,surviving fraction,[2]; 0.5 nM,1.08 ± 0.089
same,surviving fraction,[2]; 1 nM,1.11 ± 0.092
same,surviving fraction,[2]; 5 nM,1.09 ± 0.096
same,surviving fraction,[2]; 10 nM,1.12 ± 0.067
same,surviving fraction,[2]; 50 nM,1.094 ± 0.0075
same,surviving fraction,[2]; 100 nM,1.1 ± 0.026
same,surviving fraction,[2]; 500 nM,1.1 ± 0.054
same,surviving fraction,[2]; 1000 nM,1.11 ± 0.033
same,surviving fraction,[3]; 0.5 nM,1.1 ± 0.034
same,surviving fraction,[3]; 1 nM,1.1 ± 0.058
same,surviving fraction,[3]; 5 nM,1.12 ± 0.043
same,surviving fraction,[3]; 10 nM,1.06 ± 0.053
same,surviving fraction,[3]; 50 nM,0.993 ± 0.017
same,surviving fraction,[3]; 100 nM,0.899 ± 0.028
same,surviving fraction,[3]; 500 nM,0.649 ± 0.018
same,surviving fraction,[3]; 1000 nM,0.602 ± 0.039
same,surviving fraction,[4]; 0.5 nM,1.01 ± 0.13
same,surviving fraction,[4]; 1 nM,0.998 ± 0.023
same,surviving fraction,[4]; 5 nM,0.916 ± 0.087
same,surviving fraction,[4]; 10 nM,0.435 ± 0.069
same,surviving fraction,[4]; 50 nM,0.0263 ± 0.0025
same,surviving fraction,[4]; 100 nM,0.021 ± 0.001
same,surviving fraction,[4]; 500 nM,0.0197 ± 0.00058
same,surviving fraction,[4]; 1000 nM,0.023 ± 0.001
same,surviving fraction,[5]; 0.5 nM,0.917 ± 0.019
same,surviving fraction,[5]; 1 nM,0.924 ± 0.086
same,surviving fraction,[5]; 5 nM,0.959 ± 0.019
same,surviving fraction,[5]; 10 nM,0.919 ± 0.016
same,surviving fraction,[5]; 50 nM,0.46 ± 0.012
same,surviving fraction,[5]; 100 nM,0.375 ± 0.029
same,surviving fraction,[5]; 500 nM,0.204 ± 0.0038
same,surviving fraction,[5]; 1000 nM,0.118 ± 0.0095
same,surviving fraction,[6]; 0.5 nM,0.976 ± 0.025
same,surviving fraction,[6]; 1 nM,0.952 ± 0.046
same,surviving fraction,[6]; 5 nM,1.04 ± 0.069
same,surviving fraction,[6]; 10 nM,1.02 ± 0.12
same,surviving fraction,[6]; 50 nM,1.091 ± 0.0056
same,surviving fraction,[6]; 100 nM,1.07 ± 0.062
same,surviving fraction,[6]; 500 nM,1 ± 0.011
same,surviving fraction,[6]; 1000 nM,1.04 ± 0.11
same,surviving fraction,[7]; 0.5 nM,1.12 ± 0.087
same,surviving fraction,[7]; 1 nM,1.05 ± 0.03
same,surviving fraction,[7]; 5 nM,1.13 ± 0.072
same,surviving fraction,[7]; 10 nM,1.1 ± 0.013
same,surviving fraction,[7]; 50 nM,1.17 ± 0.065
same,surviving fraction,[7]; 100 nM,1.1 ± 0.091
same,surviving fraction,[7]; 500 nM,1.1 ± 0.035
same,surviving fraction,[7]; 1000 nM,1.04 ± 0.048
same,surviving fraction,[8]; 0.5 nM,1.21 ± 0.072
same,surviving fraction,[8]; 1 nM,1.17 ± 0.042
same,surviving fraction,[8]; 5 nM,1.19 ± 0.017
same,surviving fraction,[8]; 10 nM,1.19 ± 0.071
same,surviving fraction,[8]; 50 nM,1.26 ± 0.054
same,surviving fraction,[8]; 100 nM,1.21 ± 0.16
same,surviving fraction,[8]; 500 nM,1.14 ± 0.019
same,surviving fraction,[8]; 1000 nM,1.08 ± 0.045
same,surviving fraction,[9]; 0.5 nM,1 ± 0.079
same,surviving fraction,[9]; 1 nM,0.749 ± 0.029
same,surviving fraction,[9]; 5 nM,0.37 ± 0.015
same,surviving fraction,[9]; 10 nM,0.199 ± 0.015
same,surviving fraction,[9]; 50 nM,0.143 ± 0.01
same,surviving fraction,[9]; 100 nM,0.141 ± 0.0051
same,surviving fraction,[9]; 500 nM,0.1213 ± 0.00058
same,surviving fraction,[9]; 1000 nM,0.115 ± 0.015
same,area under dose-response curve,[10],2.87
same,area under dose-response curve,[11],3.63
same,area under dose-response curve,[12],3
same,area under dose-response curve,[13],1.31
same,area under dose-response curve,[14],2.11
same,area under dose-response curve,[15],3.41
same,area under dose-response curve,[16],1.02
MFM223 BREAST,surviving fraction,[1]; 0.5 nM,1.1 ± 0.065
same,surviving fraction,[1]; 1 nM,1.02 ± 0.035
same,surviving fraction,[1]; 5 nM,1.05 ± 0.094
same,surviving fraction,[1]; 10 nM,0.963 ± 0.077
same,surviving fraction,[1]; 50 nM,0.794 ± 0.082
same,surviving fraction,[1]; 100 nM,0.699 ± 0.063
same,surviving fraction,[1]; 500 nM,0.47 ± 0.029
same,surviving fraction,[1]; 1000 nM,0.378 ± 0.027
same,surviving fraction,[2]; 0.5 nM,1.41 ± 0.52
same,surviving fraction,[2]; 1 nM,1.3 ± 0.2
same,surviving fraction,[2]; 5 nM,1.29 ± 0.26
same,surviving fraction,[2]; 10 nM,1.33 ± 0.34
same,surviving fraction,[2]; 50 nM,1.1 ± 0.034
same,surviving fraction,[2]; 100 nM,1.09 ± 0.1
same,surviving fraction,[2]; 500 nM,1.05 ± 0.11
same,surviving fraction,[2]; 1000 nM,1.03 ± 0.017
same,surviving fraction,[3]; 0.5 nM,1.49 ± 0.61
same,surviving fraction,[3]; 1 nM,1.42 ± 0.47
same,surviving fraction,[3]; 5 nM,1.51 ± 0.61
same,surviving fraction,[3]; 10 nM,1.5 ± 0.53
same,surviving fraction,[3]; 50 nM,1.19 ± 0.058
same,surviving fraction,[3]; 100 nM,1.19 ± 0.092
same,surviving fraction,[3]; 500 nM,1.12 ± 0.035
same,surviving fraction,[3]; 1000 nM,1.14 ± 0.07
same,surviving fraction,[4]; 0.5 nM,0.966 ± 0.082
same,surviving fraction,[4]; 1 nM,0.954 ± 0.19
same,surviving fraction,[4]; 5 nM,0.259 ± 0.2
same,surviving fraction,[4]; 10 nM,0.209 ± 0.15
same,surviving fraction,[4]; 50 nM,0.0798 ± 0.051
same,surviving fraction,[4]; 100 nM,0.085 ± 0.085
same,surviving fraction,[4]; 500 nM,0.116 ± 0.16
same,surviving fraction,[4]; 1000 nM,0.138 ± 0.18
same,surviving fraction,[5]; 0.5 nM,0.746 ± 0.07
same,surviving fraction,[5]; 1 nM,0.703 ± 0.03
same,surviving fraction,[5]; 5 nM,0.566 ± 0.047
same,surviving fraction,[5]; 10 nM,0.573 ± 0.11
same,surviving fraction,[5]; 50 nM,0.754 ± 0.087
same,surviving fraction,[5]; 100 nM,0.662 ± 0.041
same,surviving fraction,[5]; 500 nM,0.296 ± 0.072
same,surviving fraction,[5]; 1000 nM,0.303 ± 0.1
same,surviving fraction,[6]; 0.5 nM,0.716 ± 0.049
same,surviving fraction,[6]; 1 nM,0.791 ± 0.1
same,surviving fraction,[6]; 5 nM,0.768 ± 0.092
same,surviving fraction,[6]; 10 nM,0.811 ± 0.15
same,surviving fraction,[6]; 50 nM,1.05 ± 0.095
same,surviving fraction,[6]; 100 nM,1.02 ± 0.088
same,surviving fraction,[6]; 500 nM,1.09 ± 0.013
same,surviving fraction,[6]; 1000 nM,1.04 ± 0.017
same,surviving fraction,[7]; 0.5 nM,1.17 ± 0.042
same,surviving fraction,[7]; 1 nM,1.13 ± 0.078
same,surviving fraction,[7]; 5 nM,1.16 ± 0.11
same,surviving fraction,[7]; 10 nM,1.19 ± 0.062
same,surviving fraction,[7]; 50 nM,1.15 ± 0.14
same,surviving fraction,[7]; 100 nM,1.15 ± 0.1
same,surviving fraction,[7]; 500 nM,1.09 ± 0.031
same,surviving fraction,[7]; 1000 nM,1.03 ± 0.064
same,surviving fraction,[8]; 0.5 nM,1.22 ± 0.071
same,surviving fraction,[8]; 1 nM,1.22 ± 0.18
same,surviving fraction,[8]; 5 nM,1.22 ± 0.18
same,surviving fraction,[8]; 10 nM,1.15 ± 0.18
same,surviving fraction,[8]; 50 nM,1.16 ± 0.021
same,surviving fraction,[8]; 100 nM,1.12 ± 0.094
same,surviving fraction,[8]; 500 nM,1.11 ± 0.077
same,surviving fraction,[8]; 1000 nM,1.06 ± 0.11
same,surviving fraction,[9]; 0.5 nM,0.948 ± 0.056
same,surviving fraction,[9]; 1 nM,0.736 ± 0.066
same,surviving fraction,[9]; 5 nM,0.295 ± 0.026
same,surviving fraction,[9]; 10 nM,0.129 ± 0.012
same,surviving fraction,[9]; 50 nM,0.0873 ± 0.012
same,surviving fraction,[9]; 100 nM,0.0663 ± 0.003
same,surviving fraction,[9]; 500 nM,0.062 ± 0.0051
same,surviving fraction,[9]; 1000 nM,0.0632 ± 0.0075
same,area under dose-response curve,[10],2.67
same,area under dose-response curve,[12],3.88
same,area under dose-response curve,[13],0.996
same,area under dose-response curve,[14],1.92
same,area under dose-response curve,[15],2.94
same,area under dose-response curve,[17],3.74
same,area under dose-response curve,[16],0.825
